The test deals with xanthine oxidase (Homo sapiens, UniProt P47989). Nature of the test: Xanthine oxidase inhibitory activity, 96 well plate, kinetic reading at 295 nm. Format: biochemical.
xanthine oxidase, sequence (P47989 whole entry, species assumed): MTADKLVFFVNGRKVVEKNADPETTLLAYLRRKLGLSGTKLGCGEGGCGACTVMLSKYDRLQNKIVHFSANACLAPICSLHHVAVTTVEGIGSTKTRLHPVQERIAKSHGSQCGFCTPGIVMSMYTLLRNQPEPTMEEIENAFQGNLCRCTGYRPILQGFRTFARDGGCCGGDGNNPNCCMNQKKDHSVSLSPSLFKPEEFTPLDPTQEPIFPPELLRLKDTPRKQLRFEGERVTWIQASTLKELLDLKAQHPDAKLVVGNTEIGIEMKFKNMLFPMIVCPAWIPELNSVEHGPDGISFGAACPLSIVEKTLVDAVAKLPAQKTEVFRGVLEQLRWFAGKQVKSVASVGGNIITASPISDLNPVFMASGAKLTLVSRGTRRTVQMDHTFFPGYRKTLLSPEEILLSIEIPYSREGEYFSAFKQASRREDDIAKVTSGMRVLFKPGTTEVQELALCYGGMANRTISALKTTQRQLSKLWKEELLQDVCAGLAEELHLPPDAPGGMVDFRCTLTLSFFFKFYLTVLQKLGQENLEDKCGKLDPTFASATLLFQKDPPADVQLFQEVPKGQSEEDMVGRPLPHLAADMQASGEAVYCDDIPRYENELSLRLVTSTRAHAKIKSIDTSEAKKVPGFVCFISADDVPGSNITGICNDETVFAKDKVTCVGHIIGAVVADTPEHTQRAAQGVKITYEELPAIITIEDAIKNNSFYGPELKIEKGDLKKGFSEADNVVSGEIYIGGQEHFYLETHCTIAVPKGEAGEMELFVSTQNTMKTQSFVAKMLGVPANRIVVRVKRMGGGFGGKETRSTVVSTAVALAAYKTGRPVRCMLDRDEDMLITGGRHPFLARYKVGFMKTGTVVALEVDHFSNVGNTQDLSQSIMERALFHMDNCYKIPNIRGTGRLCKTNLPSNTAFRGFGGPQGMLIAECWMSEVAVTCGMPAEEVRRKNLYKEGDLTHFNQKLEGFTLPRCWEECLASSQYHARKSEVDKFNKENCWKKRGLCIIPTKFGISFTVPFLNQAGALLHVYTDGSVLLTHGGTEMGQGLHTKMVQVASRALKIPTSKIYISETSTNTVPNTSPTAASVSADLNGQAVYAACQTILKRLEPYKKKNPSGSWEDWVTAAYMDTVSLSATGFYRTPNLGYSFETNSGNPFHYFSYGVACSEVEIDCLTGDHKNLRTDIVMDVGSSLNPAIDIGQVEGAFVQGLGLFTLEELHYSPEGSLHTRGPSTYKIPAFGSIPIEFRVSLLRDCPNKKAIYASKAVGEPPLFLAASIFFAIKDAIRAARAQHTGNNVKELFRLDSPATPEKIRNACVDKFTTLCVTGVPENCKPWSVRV

On to `CC(=O)Nc1ccc(-c2nn[nH]n2)cc1` [Compound FR], for which the “PERCENT XANTHINE OXIDASE INHIBITION” value (compound concentration 100 μM) came out at 40%.
Same read-out and setting: with `Fc1ccc(-c2nnn[nH]2)cc1Cl` [Compound HE] the figure was 33%.
`O=C(/C=C/c1ccccc1)Nc1nnn[nH]1` [Compound HN]: the “PERCENT XANTHINE OXIDASE INHIBITION” value runs as follows: (compound concentration 1 μM) 10%; (compound concentration 10 μM) 13%; (compound concentration 100 μM) 42%.
For the molecule `O=C(Nc1ccc(F)cc1)c1ccc(-c2nnn[nH]2)cc1` [Compound HX], the “PERCENT XANTHINE OXIDASE INHIBITION” value by setting is: (compound concentration 0.03 μM) 37%; (compound concentration 0.1 μM) 59%; (compound concentration 1 μM) 92%.
The like results for `CC(=O)c1cccc(NC(=O)c2ccc(-c3nnn[nH]3)cc2)c1` [Compound IA] were, in that order, 31%, 54% and 90%.
For the molecule `CC(C)COc1ccc(-c2nn[nH]n2)cc1` [Compound IR], the “PERCENT XANTHINE OXIDASE INHIBITION” value is, setting by setting: (compound concentration 0.03 μM) 28%; (compound concentration 0.1 μM) 47%; (compound concentration 1 μM) 88%.
The like results for `O=C(Nc1ccc(-c2nnn[nH]2)cc1)c1ccccc1` [Compound IT] were, in that order, 7%, 15% and 56%.
Consider `CC(C)COc1ccc(-c2nnn[nH]2)cc1Br` [Compound JC], for which the “PERCENT XANTHINE OXIDASE INHIBITION” value was found to be 6% (compound concentration 0.1 μM) and 31% (compound concentration 1 μM).
`CC(C)COc1ccc(-c2nnn[nH]2)cc1C#N` [Compound JE]: the “PERCENT XANTHINE OXIDASE INHIBITION” value amounted to 12% (compound concentration 0.03 μM), 32% (compound concentration 0.1 μM) and 82% (compound concentration 1 μM).
For the molecule `c1ccc(-c2nnn[nH]2)cc1` [FF], the “PERCENT XANTHINE OXIDASE INHIBITION” value (compound concentration 100 μM) is on record as 10%.
Still for that read-out and setting: in the case of `Clc1cccc(-c2nnn[nH]2)c1` [FG] it was 34%.
Regarding `Clc1ccc(-c2nnn[nH]2)cc1` [FH], the “PERCENT XANTHINE OXIDASE INHIBITION” value (compound concentration 10 μM) is on record as 27% and the “PERCENT XANTHINE OXIDASE INHIBITION” value (compound concentration 100 μM) was found to be 69%.
In the case of `Brc1ccc(-c2nnn[nH]2)cc1` [FI], the “PERCENT XANTHINE OXIDASE INHIBITION” value reads like this: (compound concentration 10 μM) 21%; (compound concentration 100 μM) 67%.
On to `COc1ccc(-c2nnn[nH]2)cc1` [FK], for which the “PERCENT XANTHINE OXIDASE INHIBITION” value (compound concentration 10 μM) was found to be 30% and the “PERCENT XANTHINE OXIDASE INHIBITION” value (compound concentration 100 μM) is 71%.
On to `FC(F)(F)Oc1ccc(-c2nnn[nH]2)cc1` [FL], for which the “PERCENT XANTHINE OXIDASE INHIBITION” value (compound concentration 10 μM) came to 14% and the “PERCENT XANTHINE OXIDASE INHIBITION” value (compound concentration 100 μM) amounted to 55%.
Consider `Fc1ccc(-c2nnn[nH]2)cc1` [FM], for which the “PERCENT XANTHINE OXIDASE INHIBITION” value is, setting by setting: (compound concentration 10 μM) 19%; (compound concentration 100 μM) 78%.
Consider `Cc1ccc(-c2nnn[nH]2)cc1` [FN], for which the “PERCENT XANTHINE OXIDASE INHIBITION” value was 3% (compound concentration 10 μM) and 32% (compound concentration 100 μM).
As for `Nc1ccc(-c2nnn[nH]2)cc1` [FO], the “PERCENT XANTHINE OXIDASE INHIBITION” value came to 3% (compound concentration 10 μM) and 30% (compound concentration 100 μM).
`Fc1ccccc1-c1nnn[nH]1` [FP]: the “PERCENT XANTHINE OXIDASE INHIBITION” value (compound concentration 10 μM) worked out at 3% and the “PERCENT XANTHINE OXIDASE INHIBITION” value (compound concentration 100 μM) was determined as 21%.
As to `CNC(=O)Nc1ccc(-c2nnn[nH]2)cc1` [FS], the “PERCENT XANTHINE OXIDASE INHIBITION” value (compound concentration 100 μM) turned out to be 10%.
For `CC(=O)c1ccc(-c2nnn[nH]2)cc1` [FU], the “PERCENT XANTHINE OXIDASE INHIBITION” value reads like this: (compound concentration 1 μM) 9%; (compound concentration 10 μM) 54%; (compound concentration 100 μM) 92%.
The like results for `CCOC(=O)c1ccc(-c2nnn[nH]2)cc1` [FV] were, in that order, 64%, 92% and 100%.
In the case of `COC(=O)c1ccc(-c2nnn[nH]2)cc1` [FW], the “PERCENT XANTHINE OXIDASE INHIBITION” value reads like this: (compound concentration 1 μM) 39%; (compound concentration 10 μM) 82%; (compound concentration 100 μM) 100%.
Turning to `CCCCOC(=O)c1ccc(-c2nnn[nH]2)cc1` [FX], the “PERCENT XANTHINE OXIDASE INHIBITION” value was 73% (compound concentration 1 μM), 95% (compound concentration 10 μM) and 95% (compound concentration 100 μM).
As for `O=C(O)c1ccc(-c2nnn[nH]2)cc1` [FY], the “PERCENT XANTHINE OXIDASE INHIBITION” value runs as follows: (compound concentration 1 μM) 11%; (compound concentration 10 μM) 56%; (compound concentration 100 μM) 91%.
As to `CC(C)OC(=O)c1ccc(-c2nnn[nH]2)cc1` [FZ], the “PERCENT XANTHINE OXIDASE INHIBITION” value by setting is: (compound concentration 1 μM) 88%; (compound concentration 10 μM) 97%; (compound concentration 100 μM) 100%.
On to `O=C(OCc1ccccc1)c1ccc(-c2nnn[nH]2)cc1` [GA], for which the “PERCENT XANTHINE OXIDASE INHIBITION” value by setting is: (compound concentration 1 μM) 78%; (compound concentration 10 μM) 100%; (compound concentration 100 μM) 100%.
Consider `O=C(OCC1CC1)c1ccc(-c2nnn[nH]2)cc1` [GB], for which the “PERCENT XANTHINE OXIDASE INHIBITION” value is, setting by setting: (compound concentration 1 μM) 82%; (compound concentration 10 μM) 97%; (compound concentration 100 μM) 100%.
Take `O=C(Oc1ccccc1)c1ccc(-c2nnn[nH]2)cc1` [GC]: the “PERCENT XANTHINE OXIDASE INHIBITION” value is, setting by setting: (compound concentration 0.05 μM) 52%; (compound concentration 0.1 μM) 97%; (compound concentration 1 μM) 100%.
As to `O=C(OCc1cccc(Cl)c1)c1ccc(-c2nnn[nH]2)cc1` [GD], the “PERCENT XANTHINE OXIDASE INHIBITION” value amounted to 79% (compound concentration 1 μM), 82% (compound concentration 10 μM) and 100% (compound concentration 100 μM).
As for `O=C(OCc1ccc(Cl)cc1)c1ccc(-c2nnn[nH]2)cc1` [GE], the “PERCENT XANTHINE OXIDASE INHIBITION” value is, setting by setting: (compound concentration 0.05 μM) 59%; (compound concentration 0.1 μM) 100%; (compound concentration 1 μM) 100%.
In the case of `CCCCCCOC(=O)c1ccc(-c2nnn[nH]2)cc1` [GF], the “PERCENT XANTHINE OXIDASE INHIBITION” value is 28% (compound concentration 1 μM), 79% (compound concentration 10 μM) and 97% (compound concentration 100 μM).
For the molecule `O=C(OC1CCCCC1)c1ccc(-c2nnn[nH]2)cc1` [GH], the “PERCENT XANTHINE OXIDASE INHIBITION” value reads like this: (compound concentration 0.03 μM) 65%; (compound concentration 0.1 μM, 0.1 µM) 91%; (compound concentration 1 μM, 1 µM) 100%.
Take `O=C(OCC12CC3CC(CC(C3)C1)C2)c1ccc(-c2nnn[nH]2)cc1` [GI]: the “PERCENT XANTHINE OXIDASE INHIBITION” value stood at 75% (compound concentration 0.03 μM), 95% (compound concentration 0.1 μM) and 100% (compound concentration 1 μM).
As for `O=C(OCC(F)(F)F)c1ccc(-c2nnn[nH]2)cc1` [GJ], the “PERCENT XANTHINE OXIDASE INHIBITION” value by setting is: (compound concentration 0.01 μM) 12%; (compound concentration 0.1 μM) 59%; (compound concentration 1 μM) 99%.
The matching figures for `O=C(OCCN1CCOCC1)c1ccc(-c2nnn[nH]2)cc1` [GK]: 3%, 12% and 46%.
Consider `O=C(OCCN1CCCC1)c1ccc(-c2nnn[nH]2)cc1` [GL], for which the “PERCENT XANTHINE OXIDASE INHIBITION” value (compound concentration 1 μM) is given as 4%.
Turning to `C#CCCCOC(=O)c1ccc(-c2nnn[nH]2)cc1` [GM], the “PERCENT XANTHINE OXIDASE INHIBITION” value is, setting by setting: (compound concentration 0.01 μM) 8%; (compound concentration 0.1 μM) 28%; (compound concentration 1 μM) 76%.
Regarding `O=C(Oc1cc[n+]([O-])cc1)c1ccc(-c2nnn[nH]2)cc1` [GN], the “PERCENT XANTHINE OXIDASE INHIBITION” value (compound concentration 1 μM) worked out at 9%.

(Values after patent US7087631B2, “Aryltetrazole compounds, and compositions thereof” (Inotek Pharmaceuticals Corporation, priority 2002, dated 2006).)
